Results on 8 molecules are retold here after US20230374068A1, “COMPOSITIONS AND METHODS FOR TREATING A DISEASE” (RAMOT AT TEL AVIV UNIVERSITY LTD., priority 2021, published 2023).

Assay [1] has as its system Rab12 phosphorylation. Briefly: Rab12 phosphorylation in PC12 cells, Ion/TPA- or rotenone-treated (western blot). In kind it is cell-based. On the technique in general: A western blot detects proteins with antibodies after separation by electrophoresis.
Description: Cells that were incubated in the absence of rotenone were then left untreated or incubated with a combination of 1 μM 4-bromo-calcium ionophore A23187 (Ion) and 50 nM of the phorbol ester (TPA) for 30 minutes at 37° C. Cells were then washed three times with PBS, lysed with lysis buffer containing phosphatase inhibitors and cell lysates analysed by western blotting with anti phosphoRab12 antibodies followed by re-probing with anti GAPDH antibodies. […] The results are the fold increase in Rab12 phosphorylation based on the ratio of phosphorylated Rab12 to GAPDH.
Samples were separated by SDS-PAGE using 10-12% polyacrylamide gels and electrophoretically transferred to nitrocellulose membranes. Blots were blocked for 20 min in TBST (10 mM Tris-HCl, pH 8.0, 150 mM NaCl, and 0.05% Tween 20) containing 5% skim-milk, followed by overnight incubation at 4° C. with the desired primary Abs. Blots were washed three times and incubated for 1 hour at room temperature with HRP-conjugated secondary Ab. Immunoreactive bands were visualized by the ECL method according to standard procedures. The intensity of the immunoreactive bands was quantified using ImageJ software.
For Rab12 phosphorylation in PC12 cells, cells were grown for 48 hours either in growth medium or in medium supplemented with 1 μM LY333531 or 10 μM GSK2578215A in the absence or presence of 100 nM rotenone. For Ion/TPA-stimulated phosphorylation, cells grown in medium only or medium containing inhibitors, were stimulated with 1 μM 4-bromo-calcium ionophore A23187 (Ion) and 50 nM of the phorbol ester (TPA) for 30 minutes. Cells were processed as above.
Assay [2] concerns Rab12 phosphorylation. Briefly: Rab12 phosphorylation in Ion/TPA-activated BMMCs with inhibitors (western blot). In kind it is cell-based, mouse. As to conditions: 1 μM inhibitor, 30 min pre-incubation, then Ion/TPA 30 min. On the procedure:
BMMCs were seeded in 10 cm plates overnight in growth medium or medium containing 400 nM TPA. Next day cells were collected and washed three times with Tyrode's buffer in Eppendorf tubes. Cells were subsequently incubated for 30 minutes at 37° C. with vehicle (0.1% DMSO) or with 10 μM GSK2578215A (GSK), 1 μM Go6976, 2 mM EGTA or 1 μM MRT68921, as indicated. Cells were then left untreated (UT) or treated for additional 30 minutes at 37° C., with a combination of 1 μM 4-bromo-calcium ionophore A23187 (Ion) and 50 nM of the phorbol ester (TPA), in the absence or presence of the inhibitors. Cells were then washed three times with PBS, lysed with lysis buffer containing phosphatase inhibitors and cell lysates analysed by western blotting with anti phosphoRab12 antibodies followed by reprobing with anti Rab12 antibodies. A representative blot is shown.
The results are the relative ratio of phosphorylated to total Rab12. […]
Samples were separated by SDS-PAGE using 10-12% polyacrylamide gels and electrophoretically transferred to nitrocellulose membranes. […] The intensity of the immunoreactive bands was quantified using ImageJ software.
Cells (RBL, BMMCs or SH-SY5Y) were grown overnight in growth medium or medium containing 400 nM TPA, where indicated. […] Cells were then washed with PBS and lysed for 30 minutes in lysis buffer D. Cell lysates were analyzed by western blotting. […]

The target in assay [3] is T1, Rab12 interaction with RILP (Mus musculus, UniProt Q5ND29).
T1 construct: made in house
T1 sequence (Q5ND29 1-369): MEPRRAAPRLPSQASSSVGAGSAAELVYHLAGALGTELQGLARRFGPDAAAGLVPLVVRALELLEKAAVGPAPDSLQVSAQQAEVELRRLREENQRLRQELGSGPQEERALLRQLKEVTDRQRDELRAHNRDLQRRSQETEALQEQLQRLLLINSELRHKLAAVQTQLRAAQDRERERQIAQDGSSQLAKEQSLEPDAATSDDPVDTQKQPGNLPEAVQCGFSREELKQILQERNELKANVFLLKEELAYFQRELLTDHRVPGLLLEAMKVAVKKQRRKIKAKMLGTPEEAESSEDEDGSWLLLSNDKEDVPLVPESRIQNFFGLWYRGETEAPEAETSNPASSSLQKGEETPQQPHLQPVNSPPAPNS
Description: Peptide inhibition of Rab12 pulldown by GST-RILP from RBL cell lysates. In kind it is binding, rat. As to conditions: 100 μM peptide, 4 h at 4° C., then RBL cell lysate overnight. Here is the method:
At the end of the incubation period, beads were sedimented by centrifugation at 5000×g for 5 min at 4° C., washed four times with 50 mM Hepes pH 7.4, 150 mM NaCl, 1 mM MgCl2, 0.2% Triton X-100, protease inhibitor mixture, 1 mM PMSF, 2 mM Na3VO4, 10 mM NaPPi and 80 mM β-glycerophosphate and suspended in 1× sample buffer and boiled for 7 minutes. Proteins were resolved by SDS-PAGE and analyzed by immunoblotting with anti Rab12 antibodies. […] The results are the average pulldown±SEM derived from two independent experiments.
Pulldown assays were performed as previously described 2. Briefly, 20 μg of GST fusion proteins or control GST immobilized on Glutathione Agarose beads were incubated for 18 hours at 4° C. with RBL cell lysates (500 μg) prepared in buffer C (50 mM Hepes pH 7.4, 150 mM NaCl, 1 mM MgCl2, 1% TritonX100, 1 mM PMSF, protease inhibitor mixture, 2 mM Na3VO4) in the presence of 0.5 mM GTPγS. At the end of the incubation period, beads were sedimented by centrifugation at 5000×g for 5 minutes at 4° C., washed 4 times in buffer C with 0.2% TritonX100, and finally suspended in sample buffer, boiled for 7 minutes, and subjected to SDS-PAGE and immunoblotting. […]

For assay [4], the system named is PC12 cells. Description: SG distribution, cell morphology and primary cilia in PC12 cells expressing CA Rab12 (confocal microscopy). In kind it is cell-based. On the procedure:
Cells (4×10^4 cells/well) were seeded onto 12 mm round glass coverslips in a 24-well plate. Next day, cells were transiently co-transfected using lipofectamine 2000 with 500 ng of plasmid encoding NPY-mRFP and 1000 ng of pEGFP-C1-Rab12(Q100L), a GTP-locked, constitutively active mutant of Rab12 (herein: CA Rab12). After transfection, cells were either left untreated (UT) or incubated for 48 hours at 37° C. with 100 nM rotenone. After 48 hours, cells were incubated for an additional hour at 37° C. with or without 100 μM of TAT-125 peptide (i.e. […], SEQ ID NO: 14), as indicated. Cells were then fixed and immunostained with polyclonal antibodies directed against Arl13b (primary cilium marker), followed by Hilyte Plus 647-conjugated goat anti-rabbit IgG. Cells were visualized by confocal microscopy. The right panels are the overlap of the confocal images on the corresponding brightfield.
RBL cells (4×10^5 cells/well) or PC12 cells (4×10^4 cells/well) were grown on 12-mm round glass coverslips, washed three times with PBS, and fixed for 20 min at room temperature with 4% paraformaldehyde in PBS. […] After washing, the cells were mounted (Golden Bridge Life Science, Mukilteo City, WA) and analyzed using a LEICA SP8 STED high resolution laser scanning confocal microscope (Leica, Wetzlar, Germany) using a 63 oil/1.4 numerical aperture objective. […]

Assay [5] addresses T2, endogenous Rab12 of RBL cells (rat, UniProt P35284 49-291, limits assumed).
T2 construct: Total Rab12 pulled down from cell lysates (blot reprobed with anti-Rab12)
T2 sequence (looked up): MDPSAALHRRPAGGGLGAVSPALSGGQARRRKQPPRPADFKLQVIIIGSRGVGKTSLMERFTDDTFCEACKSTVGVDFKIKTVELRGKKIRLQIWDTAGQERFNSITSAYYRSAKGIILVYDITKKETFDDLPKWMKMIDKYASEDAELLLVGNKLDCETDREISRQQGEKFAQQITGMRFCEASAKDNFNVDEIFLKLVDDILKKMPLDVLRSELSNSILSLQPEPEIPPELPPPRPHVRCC
Briefly: GST pulldown of endogenous Rab12 from resting RBL cell lysates, anti-Rab12 immunoblot. On the procedure: Cells were then lysed and 500 μg of cell lysate were incubated overnight at 4° C. with either GST, GST-RILP, GST-RILP-L1 or GST-RILP-L2, immobilized on glutathione agarose beads, as indicated. At the end of the incubation period, beads were sedimented by centrifugation at 5000×g for 5 minutes at 4° C., washed four times with buffer containing 50 mM Hepes pH 7.4, 150 mM NaCl, 1 mM MgCl₂, 0.2% Triton X-100, protease inhibitor mixture, 1 mM PMSF, 2 mM Na₃VO₄, 10 mM NaPPi and 80 mM β-glycerophosphate and suspended in 1× sample buffer and boiled for 7 minutes. Proteins were resolved by SDS-PAGE and analyzed by immunoblotting with the anti-phosphoRab12 antibodies, followed by reprobing with anti Rab12 antibodies, as indicated. Representative blots are shown. Similar results were obtained in two separate experiments.
Next, it was assessed whether […] any impact on Rab12 interactions with its RILP family effectors. To this end, lysates derived from resting RBL cells or RBL cells that were triggered with either IgE/Ag or Ion/TPA, were subjected to pulldown assays by chimeric proteins consisting of GST-fused to either RILP, RILP-L1, or RILP-L2, or control GST. […] Therefore, under these conditions, the efficacy of Rab12-effector interactions was RILP-L1>RILP>>>RILP-L2.

Entries after “also recorded” stand apart in the source; their conditions may differ.

`O=C(Nc1cccnc1)c1cc(-c2ccnc(F)c2)ccc1OCc1ccccc1` [GSK2578215A]: the “rotenone-induced phosphorylation of Rab12” value in assay [1] (100 nM rotenone 48 h with 1 μM LY333531 or 10 μM GSK2578215A) was “significantly inhibited”. In addition, in assay [1] (1 μM LY333531 or 10 μM GSK2578215A 48 h, Ion/TPA 30 min), the “Ion/TPA-induced phosphorylation of Rab12” value was “resistant”.
`Cn1c2ccccc2c2c3c(c4c5ccccc5n(CCC#N)c4c21)CNC3=O` [Go6976]: the “Ion/TPA-stimulated phosphorylation of Rab12” value in assay [2] is reported as “significantly inhibited”.
On the same count and under the same terms, next, `CN1CCc2cc(Nc3ncc(C4CC4)c(NCCCNC(=O)C4CCC4)n3)ccc2C1` [MRT68921]: “significantly inhibited”.
On to `C=C(C)[C@H]1Cc2c(ccc3c2O[C@@H]2COc4cc(OC)c(OC)cc4[C@@H]2C3=O)O1` [rotenone], for which the “induction of Rab12 phosphorylation” value in assay [1] (Ion/TPA 30 min or 100 nM rotenone 48 h) is reported as “induced”.
Turning to “EACKSTVGVDFKIKT [peptide Rab125, human Rab12 residues 69-83]”, in assay [3], the “pulldown of Rab12 by GST-RILP” value was “could inhibit”.
For “ERFNSITSAYYRSAK [peptide Rab121, human Rab12 residues 102-116]”, the “pulldown of Rab12 by GST-RILP” value in assay [3] is reported as “could inhibit”.
For “YGRKKRRQRRRGGEACKSTVGVDFKIKT [TAT-125, cell permeable version of peptide 125]”, the “cellular distribution of the SGs (Rab12-RILP interaction in intact cells)” value in assay [4] (PC12 cells expressing CA Rab12 and NPY-mRFP, 100 μM TAT-125) was “partial scattering of the clustered SGs”. Also, the “cell morphology and primary cilia of rotenone treated cells” value in assay [4] (PC12 cells, 100 nM rotenone 48 h, then 100 μM TAT-125) is “improves the cell morphology; also recorded: regained their normal appearance and size”.

B1: GST-RILP-L1 (pGEX-4T-3-RILP-L1) (other, mouse, UniProt Q9JJC6 1-406, looked up)
chain: MEEPLGSPPAALSALEKNVAELTVMDVYDIASLVGHEFERVIDQHGCESIARLMPKVVRVLEILEVLVSRHHVAPELDELRLELDRLRVERMDRIEKERKHQKELELVEDVWRGEAQDLLSQIAQLQEENKQLMTNLNHKDVGFSEEEFQKQEGMSERERQVMKRLKEVVDKQRDELRAKDRELGLKNEDVEALQQQQTRLMKINHDLRHRVTVVEAQGKALIEQKVELEADLQTKEQEMGSLRAELGKLRERLQGEHSQNGEEEEAEIQPQPDGEESISDAEKAALDLKDPNRPRFTLQELRDVLHERNELKSKVFLLQEELAYYKSEEIEEENRIPQPPPITHPRTSPQPESGIKRLFSFFSRDKKRLANTQRPTHIHESFGQWAITQRDDGYTEQGQEALQHL
notes: Immobilized on glutathione agarose beads; not shown: glutathione S-transferase (GST) encoded by the pGEX-4T-3 vector
Regarding B1, in assay [5], the “fold pulldown efficacy against GST-RILP” value is 3 fold and the “fold pulldown efficacy against GST-RILP-L2” value came out at 9 fold.
